Earlier results as cited in patent US20090155335A1, “NON-LEACHING NON-FOULING ANTIMICROBIAL COATINGS” (priority 2007, published 2009).

Test system: methicillin resistant and vancomycin intermediate-resistant Staphylococcus aureus
Conditions: Dacron graft soaked in dermaseptin solution, rat

Substance: dermaseptin
- efficacy of released dermaseptin against resistant S. aureus: effective
